Experimental data published in US8071654B2, “Inhibitors of thromboxane formation and action” (priority 2000, dated 2011).
Each block holds one compound with its values, some of them ahead of it.

Key:
TP receptor [1] = biological target: T1, TP receptor (Homo sapiens, UniProt P21731); assay: platelet aggregation evoked by I-BOP; type: cell-based; details: 2 ng/0.5 ml, data not shown
T1 construct: endogenous in cells; host or cells: washed human platelets
T1 sequence (P21731 1-343): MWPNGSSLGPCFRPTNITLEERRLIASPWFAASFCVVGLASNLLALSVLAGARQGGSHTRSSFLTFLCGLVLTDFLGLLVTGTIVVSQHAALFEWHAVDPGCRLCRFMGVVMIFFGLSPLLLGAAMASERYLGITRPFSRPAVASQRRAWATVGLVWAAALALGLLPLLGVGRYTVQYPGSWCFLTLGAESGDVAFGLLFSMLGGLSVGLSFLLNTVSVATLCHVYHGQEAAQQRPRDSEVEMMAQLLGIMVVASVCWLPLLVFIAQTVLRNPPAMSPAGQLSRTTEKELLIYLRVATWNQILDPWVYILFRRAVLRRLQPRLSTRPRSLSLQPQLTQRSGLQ
Procedure: Venous blood was obtained from healthy human subjects who had not taken NSAID's for at least two weeks. Blood was drawn into plastic syringes containing ACD. It was immediately centrifuged at 23° at 200×g for 15 min. The platelet rich plasma was transferred into fresh plastic tubes and centrifuged at 400×g for 5 min. The supernatant was discarded and the platelet sediment was resuspended in fresh medium containing NaCl (137 mM), KCl (1 mM), NaH2PO4, glucose (5.5 mM), HEPES (20 mM) and CaCl2 (1 mM) and allowed to stand at room temperature for 30 min. A platelet count was made, which determined the volume of platelet suspension needed to make up 350×10^6 cells for each measurement. The aliquot was diluted with medium to make 0.5 ml/assay/cuvette. […]
0.5 ml of platelet suspension was added to siliconized glass tubes (four at a time) and heated with magnetic stirring to 37° for 1 min in a platelet aggregometer (PAP-4C). […] The response was recorded for the next 5 min. […] In experiments where the conversion of tritiated PGH2 was to be monitored, the procedure described above was repeated with tritiated PGH2 instead of unlabeled PGH2. After extraction of the sample as described above, the radiolabeled compounds were analyzed by TLC. Dose response curves for varying amounts of test compounds were generated and the data expressed as % inhibition of collagen-induced platelet aggregation. […]

platelet TP receptor = biological target: T2, platelet TP receptor (Homo sapiens, UniProt P21731); assay: binding of 125I-BOP to platelets; details: 10×10^6 cells/0.5 ml; read-out: IC50 for competition with 125I-BOP binding to platelets
T2 construct: endogenous in cells; host or cells: washed human platelets
T2 sequence (P21731 1-343): T1 sequence (P21731 1-343)
Procedure: Washed platelets were prepared as described above, except that the platelet suspension was made up at a concentration of 10×10^6 cells/0.5 ml. The binding assay involved the addition of radioligand (30,000 cpm ^125I-BOP) to all tubes in triplicate, and either various doses of unlabeled I-BOP (10^−9-10^−7 M), PBT-3 (10^−9-10^−7 M) or U46619 (10^−9-10^−7 M) in 1 μl ethanol. Additional tubes containing excess unlabeled I-BOP were included to assess the extent of non-specific binding.

[2] = intra ocular pressure in rats, eye drops, TonoPen; type: in vivo, Brown Norway rats; details: one drop daily to left eye, after 10 days' treatment, vs untreated right eye
Procedure: Brown Norway rats (300 g) were purchased from Charles River (St. Constant, Que), and housed (two/cage) in an animal facility with free access to food and water. A light cycle of 12 h on and 12 h off was maintained. Animals were allowed to adjust for one week prior to treatment during which period they were handled daily to get them familiarized with the procedures.
Prior to treatment with test drugs, the rats' intra ocular pressures (IOP) were measured to establish baseline readings. One drop of Didocaine (0.5%, Dioptic Labs, Markham, Ont) was administered to each eye, and the pressure in each eye was measured with a TonoPen (Mentor XL, Innova Medical Ophthalmics, Toronto). The treatment protocol consisted of daily administration of one drop of one of the following substances to the left eye, the right eye being left untreated to act as a control. […] Following this, the animals were left without treatment for 2 weeks (wash-out), and then treatment was started again, the same animals receiving the same drugs. Results are calculated from at least 30 readings/test animal and presented as the mean±SEM (left eye vs right eye), with the exclusion of readings >50 and <10 which were considered spurious and artifactual readings.

human platelets = assay: collagen-evoked aggregation of washed human platelets; type: cell-based; details: single dose 1 μg added 2 min prior to collagen (2 μg); 350×10^6 washed human platelets in 0.5 ml
Procedure: Venous blood was obtained from healthy human subjects who had not taken NSAID's for at least two weeks. Blood was drawn into plastic syringes containing ACD. […] The platelet rich plasma was transferred into fresh plastic tubes and centrifuged at 400×g for 5 min. […] A platelet count was made, which determined the volume of platelet suspension needed to make up 350×10^6 cells for each measurement. The aliquot was diluted with medium to make 0.5 ml/assay/cuvette. Appropriate calibration of the aggregometer (PAP-4C) for 0% and 100% transmission was carried out through the use of a sample of platelet suspension and cell-free medium (37).
(§1) 0.5 ml of platelet suspension was added to siliconized glass tubes (four at a time) and heated with magnetic stirring to 37° for 1 min in a platelet aggregometer (PAP-4C). Either vehicle alone (ethanol, 1 μl) or hepoxilin analog was then added, followed two min later by agonist (collagen: 2 μg; PGH2: 100 ng/0.5 ml; U46619: 10 ng/0.5 ml or I-BOP: 2 ng/0.5 ml). The response was recorded for the next 5 min. In experiments where analysis of TxB2 and HHT were to be made by HPLC, the platelet suspension at the end of the experiment was diluted with ethyl acetate, 100 ng of prostaglandin B1 was added as internal standard, and the mixture was acidified to pH 3 with 0.1 N HCl. After centrifugation, the organic layer was separated, washed twice with water to neutrality, and evaporated to dryness. Half of the sample was taken and was resuspended in 1 ml ethyl acetate containing 20 μg ADAM reagent, and was left in the dark for 2 h (38). The solvent was then evaporated and the residue was acetylated with a solution of pyridine/acetic anhydride (3/1, v/v) during 16 h at 23°. The reagents were evaporated to dryness and the residue was resuspended in acetonitrile/water for HPLC analysis. In experiments where the conversion of tritiated PGH2 was to be monitored, the procedure described above was repeated with tritiated PGH2 instead of unlabeled PGH2. After extraction of the sample as described above, the radiolabeled compounds were analyzed by TLC. Dose response curves for varying amounts of test compounds were generated and the data expressed as % inhibition of collagen-induced platelet aggregation. Each point was investigated 5 times and statistical analysis of the data was carried out using Macintosh Statview statistical software.

TP receptor [3] = biological target: T1, TP receptor; assay: platelet aggregation evoked by the TxA2 mimic U46619; type: cell-based; details: aspirin 20 μg
Procedure: Venous blood was obtained from healthy human subjects who had not taken NSAID's for at least two weeks. Blood was drawn into plastic syringes containing ACD. It was immediately centrifuged at 23° at 200×g for 15 min. The platelet rich plasma was transferred into fresh plastic tubes and centrifuged at 400×g for 5 min. The supernatant was discarded and the platelet sediment was resuspended in fresh medium containing NaCl (137 mM), KCl (1 mM), NaH2PO4, glucose (5.5 mM), HEPES (20 mM) and CaCl2 (1 mM) and allowed to stand at room temperature for 30 min. A platelet count was made, which determined the volume of platelet suspension needed to make up 350×10^6 cells for each measurement. The aliquot was diluted with medium to make 0.5 ml/assay/cuvette. Appropriate calibration of the aggregometer (PAP-4C) for 0% and 100% transmission was carried out through the use of a sample of platelet suspension and cell-free medium (37).
as §1

[4] = cited from earlier work

aggregation caused by the agonist (TP receptor [1]): 70%
IC50 (platelet TP receptor): 0.5 nM
Structure (SMILES): O=C(O)CCC/C=C\C[C@@H]1[C@@H](/C=C/[C@H](O)COc2ccc(I)cc2)[C@H]2CC[C@@H]1O2 (relative stereo) [I-BOP, 5-heptenoic acid, 7-[3-[3-hydroxy-4-(4-iodophenoxy)-1-butenyl]-7-oxabicyclo [2.2.1]hept-2-yl]-,[15-[1α, 2α(Z), 3β(1E,3S*), 4α]], reference compound]

Structure (SMILES): CC(C)(C)NC[C@H](O)COc1cccc2c1CCCC2=O [O-bunolol, reference compound]
effect on intra ocular pressure (IOP) ([2]; 0.5%): non-significant rise

Structure (SMILES): CCCCC/C=C\CC1CC1/C=C/[C@@H](O)C/C=C\CCCC(=O)OC (stereo partly drawn) [PBT-1, 8(S)-hydroxy-11,12-cyclopropyl-eicosa-5Z,9E,14Z-trienoic acid methyl ester]
inhibition of collagen-evoked aggregation (human platelets): inhibited the collagen effect

Structure (SMILES): CCCCC/C=C\CC1CC1/C=C/C(O)C/C=C\CCCC(=O)OC [PBT-2, 8(R)-hydroxy-11,12-cyclopropyl-eicosa-5Z,9E,14Z-trienoic acid methyl ester]
inhibition of collagen-evoked aggregation (human platelets): inhibited the collagen effect

Structure (SMILES): CCCCC/C=C\CC1CC1[C@H](O)/C=C\C/C=C\CCCC(=O)OC (stereo partly drawn) [PBT-4, 10(R)-hydroxy-11,12-cyclopropyl-eicosa-5Z,8Z,14Z-trienoic acid methyl ester]
inhibition of collagen-evoked aggregation (human platelets): inhibited the collagen effect

Structure (SMILES): CCCCC/C=C\CC1CC1[C@@H](O)/C=C\C/C=C\CCCC(=O)N[C@H]1C(O)O[C@H](CO)[C@H](O)[C@@H]1O (stereo partly drawn) [PBT-30, 10(S)-hydroxy-11,12-cyclopropyl-eicosa-5Z, 8Z, 14Z-trienoic acid galactosamide]
effect on intra ocular pressure (IOP) ([2]; 0.005%): tended to reduce IOP but the effect did not reach statistical significance

IC50 (platelet TP receptor): 4.1 nM
Structure (SMILES): CCCCCC(O)C=CC1C2CC(CO2)C1CC=CCCCC(=O)O (stereo not drawn) [U46619, 5-heptenoic acid, 7-[6-(3-hydroxy-1-octenyl)-2-oxabicyclo-[2,2,1]-hept-5yl]-[1R-[1α,4α,5β(z), 6α(1E,3S*)]-9,11-dideoxy-9α,11α-methanoepoxyprostaglandin F2α, reference compound]

effect on U46619-evoked aggregation (TP receptor [3]): did not block
Structure (SMILES): CC(=O)Oc1ccccc1C(=O)O [aspirin, reference compound]

Structure (SMILES): CC(C)OC(=O)CCC/C=C\C[C@@H]1[C@@H](CC[C@@H](O)CCc2ccccc2)[C@H](O)C[C@@H]1O [latanoprost, reference compound]
effect on intra ocular pressure (IOP) ([2]; 0.005%): significant reduction in IOP

Structure (SMILES): CCCCC[C@H](O)/C=C/[C@H]1O[C@H]2C[C@H](O2)[C@@H]1C/C=C\CCCC(=O)O [thromboxane A2 (TxA2), thromboxane A2]
half life in the body [4]: 30 s
